Data reported in the NIST ThermoML archive (doi:10.1021/acs.jced.7b00440).
± gives the expanded uncertainty stated by the source.

Conditions: 100 kPa, Liquid; for viscosity: Capillary tube (Ostwald / Ubbelohde) method; for mass density: Vibrating tube method

viscosity (293.15 K) [mPa·s] | mass density (293.15 K) [kg/m3] | viscosity (298.15 K) [mPa·s] | mass density (298.15 K) [kg/m3] | viscosity (303.15 K) [mPa·s] | mass density (303.15 K) [kg/m3] | viscosity (308.15 K) [mPa·s] | mass density (308.15 K) [kg/m3] | viscosity (313.15 K) [mPa·s] | mass density (313.15 K) [kg/m3] | viscosity (318.15 K) [mPa·s] | mass density (318.15 K) [kg/m3] | viscosity (323.15 K) [mPa·s] | mass density (323.15 K) [kg/m3] | viscosity (328.15 K) [mPa·s] | mass density (328.15 K) [kg/m3] | viscosity (333.15 K) [mPa·s] | mass density (333.15 K) [kg/m3] | SMILES
4.077 ± 0.079 | 801.98 ± 0.27 | 3.394 ± 0.066 | 798.13 ± 0.27 | 2.949 ± 0.057 | 794.24 ± 0.27 | 2.54 ± 0.049 | 790.29 ± 0.27 | 2.208 ± 0.043 | 786.3 ± 0.27 | 1.855 ± 0.036 | 782.24 ± 0.27 | 1.621 ± 0.032 | 778.12 ± 0.27 | 1.425 ± 0.028 | 773.92 ± 0.27 | 1.25 ± 0.024 | 769.65 ± 0.27 | CC(C)CO [2-methyl-1-propanol]
2.97 ± 0.056 | 809.01 ± 0.2 | 2.547 ± 0.048 | 805.87 ± 0.2 | 2.237 ± 0.042 | 802.06 ± 0.21 | 1.98 ± 0.038 | 798.18 ± 0.21 | 1.757 ± 0.033 | 794.26 ± 0.21 | 1.568 ± 0.03 | 790.3 ± 0.21 | 1.404 ± 0.027 | 786.29 ± 0.21 | 1.255 ± 0.024 | 782.02 ± 0.21 | 1.132 ± 0.022 | 777.81 ± 0.21 | CCCCO [butan-1-ol]
3.742 ± 0.071 | 807.17 ± 0.2 | 3.093 ± 0.059 | 803.05 ± 0.21 | 2.579 ± 0.049 | 798.85 ± 0.21 | 2.147 ± 0.041 | 794.55 ± 0.21 | 1.826 ± 0.035 | 790.16 ± 0.21 | 1.555 ± 0.03 | 785.66 ± 0.21 | 1.337 ± 0.025 | 781.05 ± 0.21 | 1.142 ± 0.022 | 776.34 ± 0.21 | 0.992 ± 0.019 | 771.51 ± 0.21 | CCC(C)O (centres undefined) [butan-2-ol]
